# Reference: patent US20180237362A1, “NOVEL POLYGODIAL ANALOGS FOR THE TREATMENT OF CANCER AND OTHER PROLIFERATIVE DISEASES” (THE BOARD OF REGENTS OF THE UNIVERSITY OF TAXAS SYSTEM, priority 2015, published 2018)
# Columns and labels:
# [1] = test system: transgenic mouse glioma cells (neurosphere cultures); test: CytoTox-Fluor cytotoxicity assay, neurosphere glioma cultures; assay type: cell-based; conditions: cdkn2a deletion, PDGFB amplification, TRPV1-deficient; 24 h; 5 at 20 μM, CBD at 10 μM
# Protocol: FIGS. 5A-D. Activity of 5 against neurosphere glioma cell cultures with clinically relevant mutations. Transgenic mouse glioma cells of defined molecular subtypes were generated by forced expression of EGFRvIII (classical GBM subtype), PDGFB (proneural GBM subtype) in cdkn2a-deficient and cdkn2a/TRPV1-doubly deficient subventricular neural precursors (NPC). These primary cell cultures were treated for 24 hours either with 10 μM CBD versus a corresponding vehicle-control (containing 0.01% DMSO) or 20 μM of 5 versus vehicle control (0.02% DMSO). Cytotoxicity was measured 24 h after incubation and base-line cytotoxicity levels in the controls were arbitrarily defined as 1. Read-outs from treated cells were normalized to their respective vehicle controls and -fold change of relative cytotoxicity was calculated. Each bar represents the mean±SD from two independent experiments; statistical significance, as determined by unpaired t-tests, is indicated: *** represents p<0.001; ** p<0.005; * p=0.0257; ns not significant).
# Human mammary carcinoma MCF-7 (ATCC HTB22) cells were cultured in RPMI supplemented with 10% FBS. […]
# The CytoTox-Fluor cytotoxicity assay from Promega has been used according to manufacturer's instructions. […] After 2 hours of incubation at 37° C., the fluorescence intensity was measured using the Tecan InfiniteF200 fluorescence plate reader (485 nm Ex/520 nm Em). […]
# [2] = test system: U373 cells; test: Trypan blue viability assay, U373; assay type: cell-based, human; conditions: 72 h treatment
# Protocol: FIG. 9. Viability of U373 cells by trypan blue staining. U373 cells were treated for 72 h with 1 or 13 and stained with trypan blue. The experiment was conducted once in triplicate. After having taken pictures, cells were fixed with ice-cold methanol and again stained with trypan blue as internal positive control.
# To confirm the results obtained in the videomicroscopy experiments, trypan blue assay was employed to detect necrotic and late apoptotic cells that had lost their plasma membrane integrity (FIG. 9). […] These observations support the results of the MTT assay and provide an explanation for the effectiveness of the C12-Wittig derivatives against cells, which display resistance to apoptosis induction. In contrast, at the concentrations necessary to induce cancer cell death 1 behaves as a toxic fixative compound of little promise as a potential drug.
# [3] = test system: human A549 non-small cell lung cancer (NSCLC); test: MTT antiproliferative assay, A549; assay type: cell-based
# Protocol: (§1) Human mammary carcinoma MCF-7 (ATCC HTB22) cells were cultured in RPMI supplemented with 10% FBS. The U87 cells (ATCC HTB-14) were cultured in DMEM culture medium, while the A549 cells (DSMZ ACC107) were cultured in RPMI culture medium supplemented with 10% heat-inactivated FBS. The GBM Hs683 (ATCC HTB-138) cells were cultivated in DMEM supplemented with 10% FBS. The human uterine sarcoma MES-SA (ATCC CRL1966) and MES-SA/D×5 cells were cultured in RPMI-1640 medium supplemented with 10% FBS with MES SA/D×5 maintained in the presence of 500 nM Doxorubicin (Sigma). SKMEL-28 cells (ATCC HTB72) and U373 GBM cells (ECACC 08061901) were cultured in RPMI culture medium supplemented with 10% heat-inactivated FBS. Cell culture media were supplemented with 4 mM glutamine (Lonza code BE17-605E), 100 μg/mL gentamicin (Lonza code 17-5182), and penicillin-streptomycin (200 units/ml and 200 μg/ml) (Lonza code 17-602E). The MDA-MB-231 (ATCC HTB-26) epithelial mammary adenocarcinoma cells were cultured in Eagle's minimum essential medium (EMEM; Invitrogen) containing 5% fetal calf serum (FCS, Cambrex), 2 mM L-glutamine (Invitrogen), 0.06% HEPES (Invitrogen) and penicillin (50 IU/ml)/streptomycin (50 µg/ml; Invitrogen) at 37° C. in a humidified atmosphere of 5% CO2 in air. Transformed mouse NPCs were cultured in suspension under neurosphere conditions at 37° C. in a humidified atmosphere of […] and 5% CO2 in DMEM F12 (Invitrogen 11320-074) supplemented with 1×B27 supplement (Invitrogen 17504-044), 5% penicillin-streptomycin (Biochrom 10378-017), 10 ng/ml EGF (R&D systems 236-EG), 10 ng/ml FGF (PeproTech 100-18B).
# (§2) Antiproliferative properties of the synthesized compounds were evaluated by the MTT assay. All compounds were dissolved in DMSO at a concentration of either 100 μM or 50 μM prior to cell treatment. The cells were trypsinized and seeded at various cell concentrations depending on the cell type. The cells were grown for 24 h to 72 h, treated with compounds at concentrations ranging from 0.001 to 100 μM and incubated for 48 or 72 h in 100 or 200 μL media depending on the cell line used. The number of experiments and replicates varied depending on the cell line. Cells treated with 0.1% DMSO were used as a negative control; 1 μM PAO was used as a positive control.
# (§3) The synthesized C12-Wittig derivatives were evaluated for antiproliferative activities in a panel of cancer cell lines that included apoptosis-resistant human U373 glioblastoma (GBM) (Lefranc et al., 2013), human A549 non-small cell lung cancer (NSCLC) and human SKMEL-28 melanoma (Mathieu et al., 2009) as well as apoptosis-sensitive human Hs683 anaplastic oligodendroglioma (Lefranc et al., 2013) and human MCF-7 breast cancer (Frolova et al., 2013).
# [4] = test system: human SKMEL-28 melanoma; test: MTT antiproliferative assay, SKMEL-28; assay type: cell-based; conditions: Homo sapiens, SK-MEL-28, 72 h treatment, sextuplicates, read-out: GI50 in vitro values, SKMEL-28
# Protocol: as §1, §2, §3
# [5] = test system: human Hs683 anaplastic oligodendroglioma; test: MTT antiproliferative assay, Hs683; assay type: cell-based; conditions: Homo sapiens, Hs 683, 72 h treatment, sextuplicates, read-out: GI50 in vitro values, Hs683
# Protocol: as §1, §2, §3
# [6] = test system: human MCF-7 breast cancer; test: MTT antiproliferative assay, MCF-7; assay type: cell-based; conditions: Homo sapiens, MCF7, 72 h treatment, sextuplicates, read-out: GI50 in vitro values, MCF-7
# Protocol: as §1, §2, §3
# [7] = test system: panel of cancer cell lines (A549, SKMEL-28, MCF-7, U373, Hs683); test: MTT antiproliferative assay, panel of five cancer cell lines; assay type: cell-based, human; conditions: Homo sapiens; mean over five cell lines, 72 h treatment, MTT assay; read-out: GI50 in vitro values, Mean + SEM
# Protocol: as §2, §3
# [8] = test system: human U373 glioblastoma (GBM); test: MTT antiproliferative assay, U373; assay type: cell-based; conditions: Homo sapiens, U373 MG, 72 h treatment, sextuplicates, read-out: GI50 in vitro values, U373
# Protocol: as §1, §2, §3
# [9] = test system: U373 human glioma cell line; test: Quantitative videomicroscopy, U373; assay type: cell-based; conditions: at GI50 concentrations (Table 1)
# Protocol: FIG. 8. In vitro videomicroscopic analysis of the anticancer effects of 1 and its C12-Wittig derivatives 5 and 13. The U373 human glioma cell line was treated with polygodial, 5 and 13 at their mean GI50 concentrations (Table 1) or left untreated. Videomicroscopy enabled taking pictures of the culture field every 4 minutes. The experiment was conducted once in triplicate. While the morphology of cells treated with 1 was fixed over time, 5 and 13 exerted cytostatic effects on U373 cells.
# In an effort to gain insight into possible mechanisms associated with antiproliferative properties of 1 and the C12-Wittig derivatives, the morphological changes in cells treated with these compounds were studied with computer-assisted phase-contrast microscopy (Luchetti et al., 2012) (quantitative videomicroscopy).
# [10] = test system: MDR uterine sarcoma cell line MES-SA/Dx5; test: MTT antiproliferative assay, MDR MES-SA/Dx5; assay type: cell-based, human
# Protocol: as §1, §2
# Selection of the MES-SA/D×5 cell line was done according to Harker et al. (Harker & Sikic, 1985). The cells were split and allowed to adhere overnight. The next day cells were initially exposed to doxorubicin (DOX) at the concentration of 100 nM, which represented the GI50 concentration. The cells were maintained at this DOX concentration until their growth rate reached that of the untreated cells. The DOX concentration was then increased in two-fold increments following the same growth criteria at each concentration to a final DOX concentration of 500 nM. Each new DOX concentration required approximately 2 passages to reach the growth rate of the untreated cells.
# Often, tumors initially respond to chemotherapy but eventually become refractory to the continuing treatment. Such acquired resistance commonly occurs through the development of a multi-drug resistant phenotype (MDR) (Gottesman et al., 2002 and Saraswathy & Gong, 2013) affecting many common chemotherapeutic agents, including the vinca alkaloids (Chen et al., 2000) and taxanes (Geney et al., 2002). In addition, the development of apoptosis resistance and MDR mechanisms is often related and concurrent (Ruefli et al., 2002 and Johnstone et al., 1999), and thus it was of interest to evaluate 5 against MDR cells. Towards this end, the MDR uterine sarcoma cell line MES-SA/D×5, established by growing the parent uterine sarcoma MES-SA in the presence of increasing concentrations of doxorubicin and resistant to multiple functionally and structurally unrelated molecules (Harker & Sikic, 1985), was utilized.
# [11] = test system: uterine sarcoma MES-SA cells; test: MTT antiproliferative assay, MES-SA; assay type: cell-based, human; conditions: Homo sapiens, MES-SA, 48 h treatment, relative to DMSO control, read-out: GI50 in vitro values, MES-SA
# Protocol: as §1
# (§4) Antiproliferative properties of the synthesized compounds were evaluated by the MTT assay. All compounds were dissolved in DMSO at a concentration of either 100 μM or 50 μM prior to cell treatment. The cells were trypsinized and seeded at various cell concentrations depending on the cell type. […]
# [12] = test system: U87 glioblastoma cell cultures; test: MTT growth curves, U87; assay type: cell-based, human; conditions: apoptosis-resistant U87 GBM; concentrations up to 100 μM
# Protocol: as §1, §4
smiles,measurement,setting,value
"C=C(C)[C@@H]1CCC(C)=C[C@H]1c1c(O)cc(CCCCC)cc1O [CBD, cannabidiol, reference compound]",cytotoxicity against GBM neurosphere cultures lacking the TRPV1 gene,[1],loses its activity
C#CCCCOC(=O)/C=C/C1=CC[C@H]2C(C)(C)CCC[C@]2(C)[C@H]1C=O [Compound 13],viability by trypan blue staining,[2],still alive after 72 hr of treatment
same,GI50,"[3]; Homo sapiens, A549, 72 h treatment, MTT assay, sextuplicates, read-out: GI50 in vitro values, A549",30 µM
same,GI50,[4],36 µM
same,GI50,[5],33 µM
same,GI50,[6],30 µM
same,GI50,[7],33 ± 1 µM
same,GI50,[8],35 µM
same,morphological effect by videomicroscopy,[9],inhibited cancer cell proliferation without inducing cell death
CC(=O)O[C@H]1C(=O)[C@@]2(C)[C@H]([C@H](OC(=O)c3ccccc3)[C@]3(O)C[C@H](OC(=O)[C@H](O)[C@@H](NC(=O)c4ccccc4)c4ccccc4)C(C)=C1C3(C)C)[C@]1(OC(C)=O)CO[C@@H]1C[C@@H]2O [Paclitaxel],"effect on proliferation/viability of all cells, A549","[3]; apoptosis-resistant A549 NSCLC, concentrations up to 100 μM",no effect on proliferation of ca. 50% of cells
same,change of potency against MES-SA/Dx5 MDR cell line as compared with parent MES-SA cells,[10]; 48 h MTT,lost their potency by a factor of a thousand
same,GI50,"[10]; Homo sapiens, MES-SA/Dx5, 48 h treatment, MTT assay, relative to DMSO control, read-out: GI50 in vitro values, MES-SA/Dx5",10 µM
same,GI50,[11],0.007 µM
same,"effect on proliferation/viability of all cells, U87",[12],no effect on proliferation of ca. 50% of cells
